# Test results as given in patent publication EP0118571A1, “Inhibitor of aldose reductase” (Kaken Pharmaceutical Co., Ltd., priority 1983, dated 1984).
# Read-outs that look alike come from different tables or passages of the source.
# Assays:
# [1] = molecular target: T1, rat lens AR (RLAR) (Rattus norvegicus, UniProt P07943); experiment: Aldose reductase (AR) activity assay, rat lens AR (NADPH oxidation, DL-glyceraldehyde substrate); type: biochemical; settings: for inhibition at 10 µM: inhibitor 10^-5M, read-out: Inhibition against enzyme activity (%) RLAR 10^-5M; for inhibition at 10 µM / inhibition at 1 µM / inhibition at 0.1 µM: 30°C, pH 6.2, 1 % propylene glycol; for inhibition at 1 µM: inhibitor 10^-6M, read-out: Inhibition against enzyme activity (%) RLAR 10^-6M; for inhibition at 0.1 µM: inhibitor 10^-7M, read-out: Inhibition against enzyme activity (%) RLAR 10^-7M
# T1 construct: BLAR and RLAR were purified according to the method of Inagaki et al; from tissue; host or cells: rat (Wistar) lens
# Protocol: (§1) The inhibitory activitiy against AR of LARI was determined according to the following method. As reference examples, there were employed quercitrin and two flavone derivatives having a relatively similar structure to that of LARI, i.e. 6,4'-dihydroxy-5,7,8,3'-tetramethoxyflavone and 5,4'-dihydroxy-6,7,8,3'-tetramethoxyflavone (hereinafter referred to as "Ref-1" and "Ref-2", respectively).
# (§2) Rat lenses were removed from eyes of rats of the Wistar strain weighing 200 to 250 g. Bovine eyes were obtained from a local abattoir, and the lenses were removed and frozen until needed.
# (§3) All compounds to be subjected to examination were dissolved in propylene glycol being a useful solvent of low toxicity for some water-insoluble drugs. A 10^-3M solution was prepared and diluted to the desired concentration with propylene glycol. To the reaction mixture were added aliquots of the diluted solution to yield concentrations of 10^-8M to 10^-5M and a propylene glycol concentration of 1 %.
# (§4) AR assays were conducted according to the procedure of Hayman and Kinoshita (J. Biol. Chem. 240, p. 877 (1965)), except for the addition of ammonium sulfate instead of lithium sulfate to the reaction mixture. Assays were performed at 30°C. in 0.1 M sodium phosphate buffer (pH 6.2) containing 0.4 M ammonium sulfate, 10 mM DL-glyceraldehyde and 0.16 mM NADPH and the enzyme (0.010 to 0.016 unit) in a total volume of 1.0 ml. The effects of inhibitors on the enzyme activity were determined in the reaction mixture containing 10 µl. of each inhibitor solution at the desired concentration. The blank reference to correct for non-specific reduction of NADPH contained all of the above compounds except the above DL-glyceraldehyde. The reaction was initiated by the addition of the above DL-glyceraldehyde, and the rate of NADPH oxidation was followed by recording the decrease in absorbance at 340 nm. on a Gilford model 250 spectrophotometer.
# (§5) BLAR and RLAR were purified according to the method of Inagaki et al (Archs. Biochem. Biophys. 216, p. 337 (1982)). Briefly, a 40 to 75 % ammonium sulfate fraction was subjected to chromatography on DEAE-Sephacel, followed by two column chromatographic steps, i.e. affinity chromatography using Matrex gel red A and gel filtration on Sephadex G-75.
# (§6) The concentration of inhibitor needed to elicit a 50 % inhibition (IC50) was determined according to the method of Kador et al (Docum. Ophthal. Proc. Series 18, p. 117 (1979)).
# [2] = molecular target: T2, bovine lens AR (BLAR) (Bos taurus, UniProt P16116); experiment: Aldose reductase (AR) activity assay, bovine lens AR (NADPH oxidation, DL-glyceraldehyde substrate); type: biochemical; settings: for inhibition at 10 µM: inhibitor 10^-5M, read-out: Inhibition against enzyme activity (%) BLAR 10^-5M; for inhibition at 10 µM / inhibition at 1 µM / inhibition at 0.1 µM: 30°C, pH 6.2, 1 % propylene glycol; for inhibition at 1 µM: inhibitor 10^-6M, read-out: Inhibition against enzyme activity (%) BLAR 10^-6M; for inhibition at 0.1 µM: inhibitor 10^-7M, read-out: Inhibition against enzyme activity (%) BLAR 10^-7M
# T2 construct: BLAR and RLAR were purified according to the method of Inagaki et al; from tissue; host or cells: bovine lens
# Protocol: as §1, §2, §3, §4, §5, §6
# [3] = purified RLAR, Table 2, read-out: IC50 (M) X 10^6 RLAR
# [4] = read-out: IC50 (concentration of inhibitor needed to elicit 50 % inhibition) RLAR
# [5] = read-out: IC50 (concentration of inhibitor needed to elicit 50 % inhibition) BLAR
Structure (SMILES),inhibition at 10 µM [1],inhibition at 1 µM [1],inhibition at 0.1 µM [1],inhibition at 10 µM [2],inhibition at 1 µM [2],inhibition at 0.1 µM [2],"IC50 [1, 3]","IC50 [1, 4]","IC50 ([2]; purified BLAR, Table 2, read-out: IC50 (M) X 10^6 BLAR)","IC50 [2, 5]","inhibitory activity against AR, times as potent as that of quercitrin ([1]; relative to quercitrin, AR in general (RLAR and BLAR not distinguished))"
"COc1cc(-c2cc(=O)c3c(O)c(OC)c(OC)c(OC)c3o2)ccc1O [Ref-2, 5,4'-dihydroxy-6,7,8,3'-tetramethoxyflavone]",40%,15%,0%,56%,19%,0%,,,,,
"COc1cc(-c2cc(=O)c3c(OC)c(O)c(OC)c(OC)c3o2)ccc1O [Ref-1, 6,4'-dihydroxy-5,7,8,3'-tetramethoxyflavone]",58%,22%,6%,63%,19%,0%,,,,,
C[C@@H]1O[C@@H](Oc2c(-c3ccc(O)c(O)c3)oc3cc(O)cc(O)c3c2=O)[C@H](O)[C@H](O)[C@H]1O [quercitrin],84%,56%,38%,66%,32%,0%,4.9e-07 M,4.9e-07 M,3.3e-06 M,3.3e-06 M,
"COc1c(OC)c(OC)c2c(=O)cc(-c3ccc(O)c(O)c3)oc2c1OC [LARI, 3',4'-dihydroxy-5,6,7,8-tetramethoxyflavone]",97%,93%,78%,100%,90%,37%,3e-08 M,3.6e-08 M,,1.8e-07 M,about 17 times
